Data: PubChem BioAssay AID286 (DTP/NCI, 2004)
Where “and” joins values, the source holds several entries; their conditions need not be identical. Equal values may be shown once. Toxic doses and inconclusive results are not listed. The calls were made as follows: active = survival T/C of 150% or more; inactive = T/C below 125% in these data. Starred links: 1 amine or outer side, 2 acyl side, 3 side chain; linkers in the order of their positions; H or OH if unused. Positions of bridges follow the written chain, without caps; N, C: chain ends. Non-standard residues stand in square brackets, D forms with d. Residues, ends and D or L forms follow the SMILES beside them. Chains are numbered I, II in the order given. ξ: configuration not given here. *: point of attachment. Actinocin(9to1) = Cc1c2oc3c(C)ccc(C(=O)[*:1])c3nc-2c(C(=O)[*:2])c(N)c1=O; Quinaldoyl(3-OH,6-OMe) = COc1ccc2nc(C(=O)*)c(O)cc2c1; X2 = CC(=O)OC1CC=NN([*:1])C1C(=O)[*:2]; ξNMeVal(3-OH) = CNC(C(=O)O)C(C)(C)O; aThr = C[C@H](O)[C@H](N)C(=O)O; X3 = O=C(C1CCCNN1[*:1])[*:2]; NMeV = CN[C@H](C(=O)O)C(C)C; Sar = CNCC(=O)O

System: BDF1 mice, M5076 sarcoma ip, median survival T/C
Assay: NCI In Vivo Anticancer Drug Screen. Data for tumor model Sarcoma M5076 (intraperitoneal) in B6D2F1 (BDF1) mice
Conditions: endpoint: median survival time, higher = longer survival
Procedure: The antitumor activity of compounds was measured in mice bearing transplantable tumors. Survival or tumor size were measured and the results are expressed as the measurement made in the treated group (T) divided by the measurement made in the vehicle treated control group (C). The tumor model used in this assay is Sarcoma M5076 (intraperitoneal) in B6D2F1 (BDF1) mice

[1] = dose: 50.0 mg/kg/injection, schedule: Q04DX004 (ip), vehicle: saline with Tween-80
[2] = dose: 100.0 mg/kg/injection, schedule: Q04DX004 (ip), vehicle: saline with Tween-80
[3] = dose: 200.0 mg/kg/injection, schedule: Q04DX004 (ip), vehicle: saline with Tween-80

Measured: T/C

O=C(O)CC(NC(=O)CP(=O)(O)O)C(=O)O (stereo not given)
active: dose: 50.0 mg/kg/injection, schedule: Q04DX005 (ip), vehicle: saline 164 % of control | dose: 100.0 mg/kg/injection, schedule: Q04DX005 (ip), vehicle: saline 180 % of control | dose: 108.0 mg/kg/injection, schedule: Q04DX004 (ip), vehicle: saline 178 % of control | dose: 180.0 mg/kg/injection, schedule: Q04DX004 (ip), vehicle: saline 195 % of control | dose: 200.0 mg/kg/injection, schedule: Q04DX005 (ip), vehicle: saline 165 % of control | dose: 300.0 mg/kg/injection, schedule: Q04DX004 (ip), vehicle: saline 195 % of control | dose: 400.0 mg/kg/injection, schedule: Q04DX005 (ip), vehicle: saline 184 % of control and 200 % of control | dose: 500.0 mg/kg/injection, schedule: Q04DX004 (ip), vehicle: saline 204 % of control | dose: 833.0 mg/kg/injection, schedule: Q04DX004 (ip), vehicle: saline 216 % of control

C[C@@]12C(=O)OC(=O)[C@]1(C)[C@H]1CC[C@@H]2O1
inactive: dose: 0.25 mg/kg/injection, schedule: Q01DX009 (ip), vehicle: acetone 115 % of control | dose: 0.5 mg/kg/injection, schedule: Q01DX009 (ip), vehicle: acetone 120 % of control | dose: 62.5 micrograms/kg/injection, schedule: Q01DX009 (ip), vehicle: acetone 113 % of control | dose: 250.0 micrograms/kg/injection, schedule: Q01DX009 (ip), vehicle: acetone 115 % of control
active: dose: 1000.0 micrograms/kg/injection, schedule: Q01DX009 (ip), vehicle: acetone 150 % of control

N#CC(C#N)=NNc1ccc2cn[nH]c2c1
inactive: dose: 12.5 mg/kg/injection, schedule: Q04DX004 (ip), vehicle: Klucel (hydroxypropylcellulose) (HPC) 105 % of control | dose: 25.0 mg/kg/injection, schedule: Q04DX004 (ip), vehicle: Klucel (hydroxypropylcellulose) (HPC) 95 % of control | dose: 50.0 mg/kg/injection, schedule: Q04DX004 (ip), vehicle: Klucel (hydroxypropylcellulose) (HPC) 90 % of control | dose: 100.0 mg/kg/injection, schedule: Q04DX004 (ip), vehicle: Klucel (hydroxypropylcellulose) (HPC) 103 % of control

COc1ccc2nc(C(=O)NC3COC(=O)C(C(C)(C)O)N(C)C(=O)CN(C)C(=O)CNC(=O)C4CCCNN4C(=O)C(NC(=O)c4nc5ccc(OC)cc5cc4O)COC(=O)C(C(C)(C)O)N(C)C(=O)CN(C)C(=O)CNC(=O)C4C(OC(C)=O)CC=NN4C3=O)c(O)cc2c1 (stereo not given) (I: {Quinaldoyl(3-OH,6-OMe)}-S[X2]G[Sar][ξNMeVal(3-OH)] / II: {Quinaldoyl(3-OH,6-OMe)}-S[X3]G[Sar][ξNMeVal(3-OH)]; ester I:1-II:C, I:C-II:1; configuration not given here)
active: dose: 10.0 micrograms/kg/injection, schedule: Q01DX009 (ip), vehicle: DMSO 155 % of control | dose: 12.5 micrograms/kg/injection, schedule: Q01DX009 (ip), vehicle: DMSO 157 % of control | dose: 20.0 micrograms/kg/injection, schedule: Q01DX009 (ip), vehicle: DMSO 190 % of control | dose: 25.0 micrograms/kg/injection, schedule: Q01DX009 (ip), vehicle: DMSO 170 % of control | dose: 50.0 micrograms/kg/injection, schedule: Q01DX009 (ip), vehicle: DMSO 179 % of control

OC(CBr)C(O)C(O)C(O)CBr (stereo not given)
active: dose: 500.0 mg/kg/injection, schedule: Q04DX005 (ip), vehicle: saline with Tween-80 176 % of control | dose: 833.0 mg/kg/injection, schedule: Q04DX005 (ip), vehicle: saline with Tween-80 176 % of control
inactive: [1] 111 % of control | [2] 114 % of control | dose: 108.0 mg/kg/injection, schedule: Q04DX005 (ip), vehicle: saline with Tween-80 122 % of control | [3] 114 % of control | dose: 400.0 mg/kg/injection, schedule: Q04DX004 (ip), vehicle: saline with Tween-80 114 % of control | dose: 800.0 mg/kg/injection, schedule: Q04DX004 (ip), vehicle: saline with Tween-80 108 % of control

CC[C@]1(O)C[C@H]2CN(CCc3c([nH]c4ccccc34)[C@@](C(=O)OC)(c3cc4c(cc3OC)N(C=O)[C@H]3[C@@](O)(C(=O)OC)[C@H](OC(C)=O)[C@]5(CC)C=CCN6CC[C@]43[C@@H]65)C2)C1
inactive: dose: 0.25 mg/kg/injection, schedule: Q04DX005 (ip), vehicle: saline 112 % of control and 124 % of control
active: dose: 0.5 mg/kg/injection, schedule: Q04DX005 (ip), vehicle: saline 164 % of control | dose: 1.0 mg/kg/injection, schedule: Q04DX005 (ip), vehicle: saline 228 % of control and 156 % of control

Cc1c2oc3c(C)ccc(C(=O)N[C@@H]4C(=O)N[C@H](C(C)C)C(=O)N5CCC[C@H]5C(=O)N(C)CC(=O)N(C)[C@@H](C(C)C)C(=O)O[C@H]4C)c3nc-2c(C(=O)N[C@@H]2C(=O)N[C@H](C(C)C)C(=O)N3CCC[C@H]3C(=O)N(C)CC(=O)N(C)[C@@H](C(C)C)C(=O)O[C@H]2C)c(N)c1=O (I: [aThr][dV]P[Sar][NMeV] / II: [aThr][dV]P[Sar][NMeV]; ester I:1-I:C, II:1-II:C; linker I:N-II:N via Actinocin(9to1))
active: dose: 0.1 mg/kg/injection, schedule: Q04DX004 (ip), vehicle: saline + alcohol 165 % of control | dose: 0.2 mg/kg/injection, schedule: Q04DX004 (ip), vehicle: saline + alcohol 178 % of control

CNc1nc(N(C)C)nc(N(C)C)n1
inactive: dose: 50.0 mg/kg/injection, schedule: Q04DX004 (ip), vehicle: saline 114 % of control | dose: 100.0 mg/kg/injection, schedule: Q04DX004 (ip), vehicle: saline 119 % of control | dose: 200.0 mg/kg/injection, schedule: Q04DX004 (ip), vehicle: saline 123 % of control

CCCCCCCCCCCCCCCC(=O)O[C@@H]1[C@@H](C)[C@@]2(O)[C@@H](C=C(CO)C[C@]3(O)C(=O)C(C)=C[C@@H]23)[C@H]2[C@]1(OC(C)=O)[C@]2(C)CO
inactive: dose: 62.5 micrograms/kg/injection, schedule: Q01DX009 (ip), vehicle: distilled water + Tween-80 117 % of control | dose: 125.0 micrograms/kg/injection, schedule: Q01DX009 (ip), vehicle: distilled water + Tween-80 121 % of control | dose: 250.0 micrograms/kg/injection, schedule: Q01DX009 (ip), vehicle: distilled water + Tween-80 122 % of control

CC(=O)OCC1OC(n2ncc(=O)[nH]c2=O)C(OC(C)=O)C1OC(C)=O (stereo not given)
inactive: dose: 150.0 mg/kg/injection, schedule: Q04DX004 (ip), vehicle: Klucel (hydroxypropylcellulose) (HPC) 102 % of control | dose: 300.0 mg/kg/injection, schedule: Q04DX004 (ip), vehicle: Klucel (hydroxypropylcellulose) (HPC) 102 % of control | dose: 600.0 mg/kg/injection, schedule: Q04DX004 (ip), vehicle: Klucel (hydroxypropylcellulose) (HPC) 102 % of control | dose: 1200.0 mg/kg/injection, schedule: Q04DX004 (ip), vehicle: Klucel (hydroxypropylcellulose) (HPC) 87 % of control

CC1=C[P+](c2ccccc2)(c2ccccc2)C=C(c2ccccc2)O1
inactive: dose: 1.25 mg/kg/injection, schedule: Q04DX004 (ip), vehicle: saline + alcohol 99 % of control | dose: 2.5 mg/kg/injection, schedule: Q04DX004 (ip), vehicle: saline + alcohol 107 % of control | dose: 5.0 mg/kg/injection, schedule: Q04DX004 (ip), vehicle: saline + alcohol 118 % of control

COc1cc2cc(c1Cl)N(C)C(=O)C[C@H](OC(=O)[C@H](C)N(C)C(C)=O)[C@]1(C)O[C@H]1[C@H](C)[C@@H]1C[C@@](O)(NC(=O)O1)[C@H](OC)C=C/C=C(\C)C2
inactive: dose: 37.0 micrograms/kg/injection, schedule: Q04DX004 (ip), vehicle: saline 117 % of control | dose: 37.0 micrograms/kg/injection, schedule: Q04DX005 (ip), vehicle: saline 113 % of control | dose: 75.0 micrograms/kg/injection, schedule: Q04DX004 (ip), vehicle: saline 112 % of control | dose: 75.0 micrograms/kg/injection, schedule: Q04DX005 (ip), vehicle: saline 123 % of control | dose: 150.0 micrograms/kg/injection, schedule: Q04DX004 (ip), vehicle: saline 119 % of control

CN=C(N)N/N=C(\C)c1ccc2sc3ccc(/C(C)=N/NC(N)=NC)cc3c2c1
inactive: [1] 113 % of control | [2] 105 % of control | [3] 119 % of control

O=C1C2C3C=CC(C2C(=O)N1CO)C1C2C(=O)N(CO)C(=O)C2C31 (stereo not given)
inactive: dose: 12.5 mg/kg/injection, schedule: Q04DX004 (ip), vehicle: water 106 % of control | dose: 25.0 mg/kg/injection, schedule: Q04DX004 (ip), vehicle: water 105 % of control | dose: 50.0 mg/kg/injection, schedule: Q04DX004 (ip), vehicle: water 106 % of control
